{"source": "patent US20080076772A1", "about": "“Anti-Inflammatory Agents” (Pharma Mar S.A. Sociedad Unipersonal, priority 2004, published 2008)", "key": {"[1]": {"test_system": "macrophage differentiation", "experiment": "In vitro macrophage differentiation of monocytes with M-CSF (phenotype analysis)", "type": "cell-based, human", "conditions": "1 nM, 5 days with M-CSF 20 ng/ml", "method": "Expression of cell membrane markers was performed by immunofluoresce and analyzed by Flow Cytometry. Cells were incubated with anti-CD14, anti-CD16, anti-CD68, anti-CD206 (mannose receptor) and then with FITC-goat anti-mouse Ig as described. At least 10,000 cells were analyzed.\nIn order to study the effect of ecteinascidin 743 on macrophage differentiation, non cytotoxic doses of the drug were used. Monocytes were cultured with M-CSF (20 ng/ml) and with sub-cytotoxic concentrations of ecteinascidin 743 for 5 days. Phenotype analysis was performed by indirect immunofluorescence and analyzed in Flow Cytometry by gating on large cells. Usually, an average of 65±15% (mean±SD of>10 experiments) of input monocytes differentiate into large cells expressing typical macrophage markers, including CD16, CD68 and CD206 (mannose receptor). After 5 days of culture monocyte viability, evaluated by propidium iodide staining in flow cytometry, was 92% and 70% of untreated cells at 0.5 and 1 nM ecteinascidin 743, respectively."}, "blood monocytes": {"test_system": "blood monocytes", "experiment": "in vitro", "method": "(§1) Purified populations of human blood monocytes were prepared as previously described by differential density centrifugation on Ficoll and Percoll gradients (see Allavena, P., Piemonti, L., Longoni, D., Bernasconi, S., Stoppacciaro, A., Ruco, L., and Mantovani, A. IL-10 prevents the differentiation of monocytes to dendritic cells but promotes their maturation to macrophages. Eur J Immunol, 28: 359-369, 1998). […] Human thymocytes were isolated from resected thymus from pediatric patients undergoing surgery. Thymocytes were obtained by teasing and isolated on Percoll gradient.\n(§2) Cells were cultured at 10^6 cells/ml in complete medium RPMI (Biochrom, Berlin, FRG)+10% FCS (Hyclone, Logan, Utah). In vitro differentiated macrophages were obtained by culture of monocytes Monocyte-Colony Stimulating Factor (M-CSF) Peprotech (20 ng/ml), for 5 days. In some experiments, macrophages were treated with LPS (100 ng/ml) Sigma Aldrich, IFN gamma (500 IU/ml) or IL-4 (20 ng/ml) (Schering Plough) for 24 h.\n(§3) Cell viability was analyzed by DNA content in Flow Cytometry\n(§4) Cells exposed to treatments were fixed with ethanol 70%, washed in PBS and stained with propidium iodide (PI) solution containing 10 ug/ml PI in PBS and 25 μl RNAse 10,000 units, overnight in the dark. PI incorporation was evaluated on at least 20,000 cells/sample using a FACS Calibur instrument (Becton Dickinson, Sunnyvale, Calif., USA), with a bandpass filter at 620 nm. Apoptosis was detected by staining with AnnexinV and PI. FACS analysis was performed using a bandpass filter 530 and 620 nm for green (AnnexinV) and red (PI) fluorescence respectively, in combination with a […] dichroic mirror.\n(§5) Purified preparations of blood monocytes, lymphocytes and thymocytes were cultured with different concentrations of ecteinascidin 743 for 48 h. Cell viability was assessed by DNA analysis and propidium iodide (PI) staining in Flow cytometry.\n(§6) A kinetics analysis of the cytotoxic effect of ecteinascidin 743 was performed in the presence of M-CSF. Cells were treated with M-CSF (20 ng/ml) and different concentrations of ecteinascidin 743. Samples were collected at the indicated times and tested for DNA analysis.\n(§7) Viability was assessed by PI staining and analyzed by Flow Cytometry."}, "in vitro": {"experiment": "in vitro", "conditions": "human", "method": "as §1, §2, §3, §4, §5, §6, §7"}, "IL-6": {"test_system": "IL-6", "experiment": "IL-6 production by LPS-stimulated monocytes (ELISA)", "type": "cell-based", "conditions": "Homo sapiens, Monocyte; 5 nM, n=2; read-out: overall inhibition of IL-6 production, monocytes", "method": "Supernatants of untreated cells or cells treated with ecteinascidin 743 or other anti-neoplastic agents were collected after 24 h culture and frozen. Monocytes, macrophages and TAM were stimulated with 100 ng/ml LPS to induce maximal cytokine production. Determination of cytokines CCL2, TNF and IL-6 was measured by specific ELISA following the manufacturer's instructions.\nMonocytes and in vitro differentiated macrophages were stimulated with LPS (100 ng/ml). After 1 h LPS stimulation they were treated with ecteinascidin 743. After 16 h incubation, cell supernatants were harvested and tested in ELISA. Under these treatment conditions cell viability was usually >85% for concentrations up to 5 nM. […] Mean inhibition at 5 nM, for monocytes, was 65% (range 50-80%, n=5) and was 50% (range 25-75%, n=5) for in vitro differentiated macrophages. Results are mean+/−SE of 3-5 experiments\nWe also tested two other cytokines, IL-6 and TNF, produced by macrophages and tumour cells, which have inflammatory properties and also act as growth factors for some tumours. IL-6 production was always reduced after ecteinascidin 743 treatment, with an overall inhibition at 5 nM of 54% (range 51-57%, n=2) and 69% (range 66-72%, n=2), in monocytes and macrophages, respectively (FIG. 6B). […]"}, "CCL2": {"test_system": "CCL2", "experiment": "CCL2 production induced by exposure of monocytes to tumor cell supernatants", "type": "cell-based, human", "conditions": "Homo sapiens, Monocyte; for inhibition at 0.0025 µM: 2.5 nM; for inhibition at 0.005 µM: 5 nM", "method": "We also tested five other ecteinascidin compounds (Table 2) for their capacity to inhibit the production of CCL2 by human monocytes in vitro. […] The extent of inhibition of ET637 Derivative A was even more pronouced compared to ET743. In Table 2 is shown that the production of CCL2, induced by exposure of monocytes to tumor cell supernatants, is inhibited up to 80% and 97% at 2.5 and 5 nM, respectively, in two different donors. In the same experiment ET743 inhibited between 30% and 70%."}, "thymocytes": {"test_system": "thymocytes", "experiment": "Cell viability of freshly isolated thymocytes (PI staining, flow cytometry)", "type": "cell-based", "conditions": "Homo sapiens, Thymocyte, 48 h", "method": "as §1, §3, §4\n(§8) Purified preparations of blood monocytes, lymphocytes and thymocytes were cultured with different concentrations of ecteinascidin 743 for 48 h. […]"}, "T lymphocytes": {"test_system": "T lymphocytes", "experiment": "Cell viability of purified T lymphocytes (PI staining, flow cytometry)", "type": "cell-based, human", "conditions": "48 h", "method": "as §1, §3, §4, §8"}, "monocytes": {"test_system": "monocytes", "experiment": "Monocytopenia in cancer patients after in vivo treatment (blood formula)", "parameters": "species or system human", "conditions": "of 9 patients; decrease = 25% inhibition in at least one cycle; % of leukocytes and monocytes/ul of blood", "source_text": "We also investigated whether the in vivo treatment with ecteinascidin 743 caused a measurable monocytopenia in cancer patients. Monocyte values were obtained from blood formula during routine clinical analysis."}, "[2]": {"conditions": "read-out: % inhibition of CCL2 production, Donor A"}, "[3]": {"conditions": "read-out: % inhibition of CCL2 production, Donor B"}}, "note": "pIC50: −log10 of the molar value. Like-named read-outs stand apart in the source and are kept apart here."}
{"smiles": "COc1cc2c(cc1O)CCN[C@]21CS[C@@H]2c3c(OC(C)=O)c(C)c4c(c3[C@H](COC1=O)N1[C@@H]2[C@H]2c3c(cc(C)c(OC)c3O)C[C@@H]([C@@H]1O)N2C)OCO4", "note": "[ecteinascidin 743]", "values": [{"measurement": "de novo expression of CD68, CD16 and CD206", "setting": "[1]", "result": "reduced"}, {"measurement": "monocyte death", "setting": "blood monocytes; 5 nM, 48 h incubation, with M-CSF", "result": 30, "unit": "%"}, {"measurement": "monocyte death", "setting": "blood monocytes; 5 nM, 48 h incubation, without M-CSF", "result": 55, "unit": "%"}, {"measurement": "monocyte death", "setting": "blood monocytes; 10 nM, 24 h treatment, with M-CSF", "result": 35, "unit": "%"}, {"measurement": "monocyte death", "setting": "blood monocytes; 10 nM, 24 h treatment, without M-CSF", "result": 65, "unit": "%"}, {"measurement": "pIC50", "setting": "blood monocytes; Homo sapiens, Monocyte, 48 h, read-out: lethal dose 50% (IC50), monocyte mortality", "result": "8.30 to 8.60"}, {"measurement": "mortality at 0.0025 µM", "setting": "blood monocytes; Homo sapiens, Monocyte, 120 h, read-out: mortality of monocytes", "result": "40 to 50", "unit": "%"}, {"measurement": "toxicity on monocytes (kinetics)", "setting": "blood monocytes; higher concentrations, after 24 h incubation, M-CSF 20 ng/ml", "result": "significant toxicity"}, {"measurement": "viability at 5 days, 0.0005 µM", "setting": "in vitro", "result": 92, "unit": "%"}, {"measurement": "viability at 5 days, 0.001 µM", "setting": "in vitro", "result": 70, "unit": "%"}, {"measurement": "inhibition at 0.005 µM", "setting": "IL-6", "result": 54, "unit": "%"}, {"measurement": "inhibition at 0.0025 µM", "setting": "CCL2; [2]", "result": 30, "unit": "%"}, {"measurement": "inhibition at 0.0025 µM", "setting": "CCL2; [3]", "result": 60, "unit": "%"}, {"measurement": "inhibition at 0.005 µM", "setting": "CCL2; [2]", "result": 70, "unit": "%"}, {"measurement": "inhibition at 0.005 µM", "setting": "CCL2; [3]", "result": 70, "unit": "%"}, {"measurement": "pIC50", "setting": "thymocytes", "result": "< 7.40"}, {"measurement": "viability of T lymphocytes", "setting": "T lymphocytes; 5 nM", "result": "all alive"}, {"measurement": "pIC50", "setting": "T lymphocytes; Homo sapiens, T-lymphocyte", "result": 7.70}, {"measurement": "patients showing a decrease in the number of monocytes", "setting": "monocytes", "result": 7}]}
